Reference: patent US20250283873A1, “NERVOUS SYSTEM CELL-CONTAINING SPHEROID, METHOD FOR PRODUCING NERVOUS SYSTEM CELL-CONTAINING SPHEROID, AND METHOD FOR EVALUATING TEST SUBSTANCE” (Ricoh Company, Ltd., priority 2024, published 2025)

Experiments:
[1] = system: 3D spheroid-cultured nerve cells (human iPSC-derived nerve cells and human-derived primary cultured astrocytes); experiment: Calcium assay in 3D spheroid-cultured nerve cells (number of calcium spikes); format: cell-based; details: for relative value (log 2) of a change in number of the calcium spikes (DMSO = 0) / relative value of the number of the calcium spikes (DMSO set to 100%): cultured 5 weeks; for relative value (log 2) of a change in number of the calcium spikes (DMSO = 0): Experimental Examples 4-9, FIG. 4-9
Description: Human iPSC-derived nerve cells (Excitatory Neurons, Elixirgen Scientific, Inc.) and human-derived primary cultured astrocytes (ScienCell Research Laboratories, Inc.) were mixed so that the number of cells per well was 8,000 for the nerve cells and 8,000 for the astrocytes, and seeded on a plate for producing a spheroid. As the culture medium, Neurobasal Plus (Thermo Fisher Scientific, Inc.) to which B-27 Plus Supplement (Thermo Fisher Scientific, Inc.), Glutamax (Thermo Fisher Scientific, Inc.), 200 μM ascorbic acid (FUJIFILM Wako Pure Chemical Corporation), and a 10% Neuron Culture medium (FUJIFILM Wako Pure Chemical Corporation) had been added was used. Subsequently, the cells were cultured for 6 weeks and a calcium assay which will be described later was performed.
In the case of the 3D spheroid-cultured nerve cells, each spheroid was transferred to a plate for measurement, a calcium-sensitive fluorescent dye (Cal-520AM, (AAT Bioquest, Inc.)), Pluronic F-127 (AAT Bioquest, Inc.), and the drug were added to the culture medium, and the fluorescence was measured at intervals of 0.5 seconds for 20 minutes using a fluorescence plate reader to measure the calcium spikes.
By setting the proportion of the change in number of the calcium spikes in a case where dimethyl sulfoxide (DMSO) used as a solvent for the drug was added to 0%, in a case where the number of the calcium spikes increased due to the addition of the drug, the value is shown to be positive, and in a case where the number of the calcium spikes decreased due to the addition of the drug, the value is shown to be negative.
A calcium assay was performed in the presence of a drug, using spheroids with different numbers of cells, and the drug responsiveness of the nerve cells was examined. Human iPSC-derived nerve cells (Excitatory Neurons, Elixirgen Scientific, Inc.) and human-derived primary cultured astrocytes (ScienCell Research Laboratories, Inc.) were mixed so that the number of cells per well was 8,000 for the nerve cells and 8,000 for the astrocytes, 4,000 for the nerve cells and 4,000 for the astrocytes, or 2,000 for the nerve cells and 2,000 for the astrocytes, and seeded on a plate for producing a spheroid. As the culture medium, Neurobasal Plus (Thermo Fisher Scientific, Inc.) to which B-27 Plus Supplement (Thermo Fisher Scientific, Inc.), Glutamax (Thermo Fisher Scientific, Inc.), 200 μM ascorbic acid (FUJIFILM Wako Pure Chemical Corporation), and a 10% Neuron Culture medium (FUJIFILM Wako Pure Chemical Corporation) had been added was used. Subsequently, the cells were cultured for 5 weeks, and a calcium assay was performed in the same manner as in Experimental Example 1. Chlorpromazine was used as the drug.
The values in the graph indicate the mean value±the standard deviation. The horizontal axis of the graph indicates the concentration of chlorpromazine in the culture medium, and the vertical axis of the graph indicates a relative value of the number of the calcium spikes in a case where dimethyl sulfoxide (DMSO) used as a solvent for the drug was added, with the number of the calcium spikes set to 100%. […] 0% indicates a state in which the calcium spikes completely disappear.
A calcium assay was performed in the same manner as in Experimental Example 2, except that the drug was changed to GABA and the number of cells constituting the spheroid was changed to 16,000 or 4,000, and the drug responsiveness of the nerve cells was examined.

[2] = system: 2D-cultured nerve cells (human iPSC-derived nerve cells and human-derived primary cultured astrocytes); experiment: Calcium assay in 2D-cultured nerve cells (number of calcium spikes); format: cell-based; details: cultured 6 weeks, Experimental Example 1, FIG. 1
Description: Human iPSC-derived nerve cells (Excitatory Neurons, Elixirgen Scientific, Inc.) and human-derived primary cultured astrocytes (ScienCell Research Laboratories, Inc.) were seeded in a 384-well plate so that the number of cells per well was 10,000 for the nerve cells and 2,500 for the astrocytes. As the culture medium, Neurobasal Plus (Thermo Fisher Scientific, Inc.) to which B-27 Plus Supplement (Thermo Fisher Scientific, Inc.), Glutamax (Thermo Fisher Scientific, Inc.), 200 µM ascorbic acid (FUJIFILM Wako Pure Chemical Corporation), and a 10% Neuron Culture medium (FUJIFILM Wako Pure Chemical Corporation) had been added was used. Subsequently, the cells were cultured for 6 weeks and a calcium assay which will be described later was performed.
A calcium assay was performed in the presence of a drug to examine the drug responsiveness of the 2D-cultured nerve cells and the 3D spheroid-cultured nerve cells. Chlorpromazine was used as the drug.
In the case of the 2D-cultured nerve cells, a calcium-sensitive fluorescent dye (Cal-520AM, AAT Bioquest, Inc.) and a drug were added to the culture medium, and the fluorescence was measured at intervals of 0.5 seconds for 20 minutes using a fluorescence plate reader to measure the calcium spikes.
FIG. 1 is a graph showing the measurement results. The values in the graph indicate the mean value±the standard deviation. […]

[3] = spheroid of 4,000 cells, compared with 16,000 cells
[4] = spheroid of 4,000 cells, Experimental Examples 2-3, FIG. 2-3, chlorpromazine at 1 μM and 3 μM
[5] = spheroid of 8,000 cells, Experimental Examples 2-3, FIG. 2-3, chlorpromazine at 1 μM and 3 μM
[6] = spheroid of 16,000 cells, Experimental Examples 2-3, FIG. 2-3, chlorpromazine at 1 μM and 3 μM

N#Cc1cc2c(cc1[N+](=O)[O-])=NC(=O)C(=O)N=2 [CNQX, 6-cyano-7-nitroquinoxaline-2,3-dione]
relative value (log 2) of a change in number of the calcium spikes (DMSO = 0) [1, 3]: the action was exhibited at a lower concentration and a stronger action was exhibited at 4,000 cells in a concentration-dependent manner

NCCCC(=O)O [GABA, γ-aminobutyric acid]
relative value (log 2) of a change in number of the calcium spikes (DMSO = 0) [1, 3]: the action was exhibited at a lower concentration and a stronger action was exhibited at 4,000 cells in a concentration-dependent manner

CN1CCc2cc3c(cc2[C@H]1[C@@H]1OC(=O)c2c1ccc1c2OCO1)OCO3 [bicuculine]
relative value (log 2) of a change in number of the calcium spikes (DMSO = 0) [1, 3]: drug responsiveness was exhibited in a concentration-dependent manner
relative value of the number of the calcium spikes (DMSO set to 100%) [1, 4]: an increase in the number of the calcium spikes was observed in a concentration-dependent manner
relative value of the number of the calcium spikes (DMSO set to 100%) [1, 5]: a significant response was not observed
relative value of the number of the calcium spikes (DMSO set to 100%) ([1]; spheroid of 8,000 cells, drug at 30 μM, Experimental Example 3, FIG. 3): a tendency of an increase in the number of the calcium spikes was observed
relative value of the number of the calcium spikes (DMSO set to 100%) [1, 6]: an increase in the number of the calcium spikes was not observed at any concentration
relative value (log 2) of a change in number of the calcium spikes (DMSO = 0) ([1]; spheroid of 16,000 cells): no drug response was observed

NC(=O)N1c2ccccc2C=Cc2ccccc21 [carbamazepine]
relative value (log 2) of a change in number of the calcium spikes (DMSO = 0) [1, 3]: the action was exhibited at a lower concentration and a stronger action was exhibited at 4,000 cells in a concentration-dependent manner

CN(C)CCCN1c2ccccc2Sc2ccc(Cl)cc21 [chlorpromazine, Chlorpromazine]
change in number of the calcium spikes (vs DMSO) ([1]; 3D spheroid, 8,000 nerve cells + 8,000 astrocytes, cultured 6 weeks, Experimental Example 1, FIG. 1): no change in number of the calcium spikes was observed at any drug concentration
relative value (log 2) of a change in number of the calcium spikes (DMSO = 0) [1, 3]: the action was exhibited at a lower concentration and a stronger action was exhibited at 4,000 cells in a concentration-dependent manner
relative value of the number of the calcium spikes (DMSO set to 100%) [1, 4]: showed a concentration-dependent response
relative value of the number of the calcium spikes (DMSO set to 100%) [1, 5]: did not show a concentration-dependent response
relative value of the number of the calcium spikes (DMSO set to 100%) [1, 6]: did not show a concentration-dependent response
number of the calcium spikes (proportion of change vs DMSO) ([2]; 2D culture, 10,000 nerve cells and 2,500 astrocytes per well): the number of the calcium spikes decreased in a drug concentration-dependent manner
concentration at which the calcium spikes disappeared ([2]; 2D culture): 3 µM

NCCc1ccc(O)c(O)c1 [dopamine]
relative value (log 2) of a change in number of the calcium spikes (DMSO = 0) [1, 3]: the action was exhibited at a lower concentration and a stronger action was exhibited at 4,000 cells in a concentration-dependent manner
